Source: patent publication US9517988B2 (Sichuan Haisco Pharmaceutical Co., Ltd., priority 2013, dated 2016)
Structures can show the parent of a compound that is named as a salt.

Experiments:
[1] = system: ICR mice; assay: Righting reflex experiment on mice with prodrugs; type: in vivo; conditions: for ED50: Mus musculus; for SI: safety index, LD5/ED95, mice; for TI: therapeutic index, LD50/ED50, mice
Experimental: (§1) After adapting to the laboratory environment, the SPF-grade ICR mice were fasted for 12 hours.

[2] = Righting reflex experiment on mice with prodrugs; type: in vivo; conditions: ICR, mouse, in vivo, mice; for MTD: prodrugs; for LD50: intravenous injection, prodrugs in physiological saline
Experimental: as §1

[3] = system: ICR mice; assay: Righting reflex experiment on mice; conditions: for ED50: Mus musculus, iv; for Anesthesia induction time / Anesthesia maintenance time / HD7 / MTD: mice; for Anesthesia induction time / Anesthesia maintenance time: intravenous injection; for Anesthesia induction time: end of administration until loss of righting reflex; for Anesthesia maintenance time: loss until recovery of righting reflex; for HD7: dose required to cause a 7-min anesthesia; for SI: safety index, LD5/ED95, mice; for TI: therapeutic index, LD50/ED50, mice; for MTD: maximum dose causing 100% loss of righting reflex without death
Experimental: (§2) LD5 (5% lethal dose): dose required to cause 5% of mice to die in a test.
(§3) If a normal animal was able to immediately turn its body to normal upright position after being pushed over or made lying on its back, such a reflex was determined as the righting reflex. Otherwise, loss of the righting reflex and the time of loss were recorded, and a reflex recovery time was recorded when the animal restored the righting reflex. The period from finishing of drug administration until loss of the righting reflex was recorded as the anesthesia induction time, and the period from loss of the righting reflex until recovery of the righting reflex was recorded as the anesthesia maintenance time.
(§4) TI (therapeutic index, i.e. LD50/ED50), SI (safety index, i.e. LD5/ED95).
(§5) MTD (maximum tolerated dose): the maximum dose able to cause 100% to loss the righting index without death.
(§6) Indicators such as median effective dose (ED50), median lethal dose (LD50), therapeutic index (TI, i.e. LD50/ED50), safety index (SI, i.e. LD5/ED95), anesthesia induction time, anesthesia maintenance time, and maximum tolerated dose (MTD) were used to evaluate the effect and safety of anesthesia. […] After adapting to the laboratory environment, laboratory animals were fasted for 12 hours. On the next day, administration was carried out at 10 mg/kg body weight. Upon intravenous injection, the time of loss of the righting reflex was recorded. The period from finishing of drug administration until loss of the righting reflex was recorded as the anesthesia induction time, and the period from loss of the righting reflex until recovery of the righting reflex was recorded as the anesthesia maintenance time. The anesthesia induction time and the anesthesia maintenance time were used to indicate how strong an anesthetic effect was. Meanwhile, the dose required to cause a 7-min anesthesia (HD7) was measured and used to evaluate relative efficacy.

[4] = Righting reflex experiment on mice; conditions: both, ICR, mouse, in vivo; for MTD: intravenous; for LD50: iv
Experimental: as §2, §3, §4, §5, §6

[5] = mice, intravenous injection, prodrugs formulated with physiological saline, read-out: ED50
[6] = mice, intravenous injection, prodrugs

Row | SMILES | ED50 [1, 5] | Anesthesia induction time [1, 6] | Anesthesia maintenance time [1, 6] | SI ([1]; prodrugs) | TI ([1]; prodrugs) | MTD ([2]; both sexes, intravenous) | LD50 ([2]; both sexes) | ED50 [3] | Anesthesia induction time [3] | Anesthesia maintenance time [3] | SI [3] | TI [3] | LD50 [4] | further results
1 | CC(C)c1cccc([C@H](C)C2CC2)c1OCOC(=O)C(NC(=O)OC(C)(C)C)C(C)C (stereo in doubt) [Compound 57, [2-[(1R)-1-cyclopropylethyl]-6-isopropyl-phenoxy]methyl(2R)-2-(tertbutoxycarbonylamino)-3-methyl-butanoate] | 36.7 mg/kg | 135.8 s | 1931.2 s | 1.3 | 3.3 | 80 mg/kg | 120 mg/kg |  |  |  |  |  |  | 
2 | CC(C)c1cccc(C(C)C2CC2)c1O (centres unmarked) [Compound 3, 2-(1-cyclopropylethyl)-6-isopropylphenol] |  |  |  |  |  |  |  | 3.7 mg/kg | <15.0 s | 660.4 s | 1.7 | 6.1 | 22.7 mg/kg | HD7 [3]: 6.0 mg/kg; MTD [4]: 10 mg/kg
3 | CCC(C)c1cccc(C(C)C2CC2)c1O (centres unmarked) [Compound 4, 2-sec-butyl-6-(1-cyclopropylethyl)phenol] |  |  |  |  |  |  |  | 4.5 mg/kg | <15.0 s | 901.7 s | 2.6 | 8.4 | 38.1 mg/kg | HD7 [3]: 4.0 mg/kg; MTD [4]: 25 mg/kg
4 | CC(c1cccc(C2CC2)c1O)C1CC1 (centres unmarked) [Compound 5, 2-cyclopropyl-6-(1-cyclopropylethyl)phenol] |  |  |  |  |  |  |  | 14.5 mg/kg | <15.0 s | 1669.5 s | 4.0 | 5.5 | 80 mg/kg | MTD [4]: 60 mg/kg
5 | CC(c1cccc(C2(C)CC2)c1O)C1CC1 (centres unmarked) [Compound 6, 2-(1-cyclopropylethyl)-6-(1-methylcyclopropyl)phenol] |  |  |  |  |  |  |  | 10.5 mg/kg | <15.0 s | 554.9 s | 2.7 | 3.8 | 40 mg/kg | MTD [4]: 30 mg/kg
6 | CC(C)c1cccc(C(C)C2CCC2)c1O (centres unmarked) [Compound 7, 2-(1-cyclobutylethyl)-6-isopropylphenol] |  |  |  |  |  |  |  | 7.1 mg/kg | <15.0 s | 958.0 s | 2.7 | 5.7 | 40 mg/kg | MTD [3]: 30.0 mg/kg
7 | CC(C)c1cccc(C(C2CC2)C2CC2)c1O [Compound 11, 2-(dicyclopropylmethyl)-6-isopropyl-phenol] |  |  |  |  |  |  |  | 30.1 mg/kg | <15.0 s | 1494.7 s | 2.5 | 3.3 | 100 mg/kg | MTD [4]: 80 mg/kg
8 | CC(C)c1cccc([C@H](C)C2CCC2)c1O [Compound 14, 2-[(1R)-1-cyclobutylethyl]-6-isopropyl-phenol] |  |  |  |  |  |  |  | 6.6 mg/kg | <15.0 s | 2235.6 s | 3.7 | 5.8 | 38.2 mg/kg | MTD [3]: 35.0 mg/kg
9 | CC(C)c1cccc([C@@H](C)C2CCC2)c1O [Compound 15, 2-[(1S)-1-cyclobutylethyl]-6-isopropyl-phenol] |  |  |  |  |  |  |  | 46.1 mg/kg | <15.0 s | 485.8 s | 1.1 | 2.3 | 107 mg/kg | MTD [3]: 70.0 mg/kg
10 | CC(C)c1cccc([C@H](C)C2CC2)c1OCOP(=O)(OCOC(=O)C(C)(C)C)OCOC(=O)C(C)(C)C [Compound 35, [[2-[(1R)-1-cyclopropylethyl]-6-isopropyl-phenoxy]methoxy-(2,2-dimethylpropanoyloxymethoxy)phosphoryl]oxymethyl 2,2-dimethylpropanoate] |  | <15.0 s | 1915.5 s | 4.9 | 5.1 |  | 200 mg/kg |  |  |  |  |  |  | ED50 ([1]; iv): 39.3 mg/kg; MTD ([2]; both sexes): 200 mg/kg
11 | CC(=O)Oc1ccccc1C(=O)OCOc1c(C(C)C)cccc1[C@H](C)C1CC1 [Compound 38, [2-[(1R)-1-cyclopropylethyl]-6-isopropyl-phenoxy]methyl 2-acetoxybenzoate] | 26.1 mg/kg | 141.0 s | 478.9 s | 1.3 | 3.1 | 50 mg/kg | 80 mg/kg |  |  |  |  |  |  | 
12 | CC(C)c1cccc([C@H](C)C2CC2)c1OCOP(=O)([O-])[O-].[K+].[K+] [Compound 45] |  |  |  |  |  |  |  |  |  |  |  |  |  | MTD ([2]; both, intravenous): 50 mg/kg; LD50 ([2]; both): 72.6 mg/kg
13 | CC(C)c1cccc([C@H](C)C2CC2)c1OCOC(=O)c1cccnc1 [Compound 51, [2-[(1R)-1-cyclopropylethyl]-6-isopropyl-phenoxy]methylpyridine-3-carboxylate] | 28.3 mg/kg | 159.0 s | 1159.9 s | 1.2 | 2.8 | 40 mg/kg | 80 mg/kg |  |  |  |  |  |  | 
14 | CC(C)C[C@H](N)C(=O)OCOc1c(C(C)C)cccc1[C@H](C)C1CC1 [Compound 60, [2-[(1R)-1-cyclopropylethyl]-6-isopropyl-phenoxy]methyl(2S)-2-amino-4-methyl-pentanoate trifluoroacetate] | 13.8 mg/kg | 6.0 s | 1473.0 s | 3.1 | 5.8 | 50 mg/kg | 79.6 mg/kg |  |  |  |  |  |  | 
15 | CC(C)c1cccc([C@H](C)C2CC2)c1OCOC(=O)[C@@H](N)Cc1ccccc1 [Compound 62, [2-[(1R)-1-cyclopropylethyl]-6-isopropyl-phenoxy]methyl(2S)-2-amino-3-phenylpropanoate trifluoroacetate] | 7.7 mg/kg | <15.0 s | 696.9 s | 1.6 | 5.9 | 30 mg/kg | 45.6 mg/kg |  |  |  |  |  |  | ED50 and efficacy compared with propofol ([1]; mice, prodrugs): smaller ED50 value and higher efficacy than propofol
16 | CC(C)c1cccc([C@@H](C)C2CC2)c1OCOP(=O)([O-])[O-].[Na+].[Na+] [Compound 65] | 82.7 mg/kg | 82.5 s | 3278.0 s | 2.9 | 4.5 | 200 mg/kg | 370 mg/kg |  |  |  |  |  |  | 
17 | CC(C)c1cccc([C@H](C)C2CCC2)c1OCOP(=O)([O-])[O-].[Na+].[Na+] [Compound 74] | 48.3 mg/kg | 96.5 s | 2378.3 s | 2.5 | 4.0 |  |  |  |  |  |  |  |  | MTD ([2]; both, intravenous): 120 mg/kg; LD50 ([2]; both): 192 mg/kg
18 | C[C@@H](c1cccc([C@H](C)C2CC2)c1OCOP(=O)(O)O)C1CC1 [Compound 75, sodium (2,6-bis((R)-1-cyclopropylethyl)phenoxy)methyl phosphate] | 11.7 mg/kg | 129.2 s | 2070.4 s | 2.3 | 3.6 | 30 mg/kg | 42.4 mg/kg |  |  |  |  |  |  | 
19 | C[C@H](c1cccc([C@H](C)C2CC2)c1OCOP(=O)(O)O)C1CC1 [Compound 76, sodium (2-((R)-1-cyclopropylethyl)-6-((S)-1-cyclopropylethyl)phenoxy)methyl phosphate] | 35.8 mg/kg | 111.8 s | 1992.8 s | 2.5 | 4.0 | 80 mg/kg | 143 mg/kg |  |  |  |  |  |  | 
20 | C[C@H](c1cccc([C@@H](C)C2CC2)c1OCOP(=O)(O)O)C1CC1 [Compound 77, sodium (2,6-bis((S)-1-cyclopropylethyl)phenoxy)methyl phosphate] | 94.7 mg/kg | 175.4 s | 1859.1 s | 1.7 | 2.9 | 160 mg/kg | 274 mg/kg |  |  |  |  |  |  | 
21 | CC[C@@H](C)c1cccc([C@H](C)C2CC2)c1OCOP(=O)([O-])[O-].[Na+].[Na+] [Compound 78] | 15.9 mg/kg | 65.2 s | 2634.6 s | 2.9 | 4.0 |  |  |  |  |  |  |  |  | MTD ([2]; both, intravenous): 40 mg/kg; LD50 ([2]; both): 63.7 mg/kg
22 | CC[C@H](C)c1cccc([C@H](C)C2CC2)c1OCOP(=O)([O-])[O-].[Na+].[Na+] [Compound 79] | 24.3 mg/kg | 72.5 s | 2252.1 s | 2.1 | 3.8 |  |  |  |  |  |  |  |  | MTD ([2]; both, intravenous): 60 mg/kg; LD50 ([2]; both): 91.8 mg/kg
